Paper PMC2930754 (Chemical communications (Cambridge, England), 2010)

Tests used:
[1] = test system: A2780 ovarian cancer cells; assay: Antiproliferative activity to A2780 ovarian cancer cells; type: cell-based; details: Homo sapiens, A2780, read-out: IC50 A2780 (antiproliferative activity)
tubulin = assay: Promotion of in vitro tubulin polymerization; type: biochemical; details: in vitro tubulin assembly

C/C(=C\c1csc(C)n1)[C@@H]1C[C@@H]2O[C@]2(C)CCC[C@H](C)[C@H](O)[C@@H](C)C(=O)C(C)(C)[C@@H](O)CC(=O)O1 [Compound 2, epothilone B]
IC50 [1]: 1.9 ± 0.2 nM

C/C1=C/C[C@@H](/C(C)=C/c2csc(C)n2)OC(=O)C[C@H](O)C(C)(C)C(=O)[C@H](C)[C@@H](O)[C@@H](C)CCC1 [Compound 4, epothilone D]
ED50, Tb polym. (promotion of tubulin polymerization) (tubulin): 440 ± 20 nM | IC50 [1]: 6.8 ± 1.7 nM
